Read-outs that look alike come from different tables or passages of the source. Blank lines part the entries; values can stand above or below the molecule they belong to. Residues, ends and D or L forms follow the SMILES beside them.
Experiments:
Format in all cases: cell-based
human EAAT1 = biological target: T1, human EAAT1 (Homo sapiens, UniProt P43003); assay: inhibition of [3H]-L-glutamate uptake in COS-7 cells expressing EAAT1; settings: for Ki: read-out: Ki, glutamate uptake inhibition constant, EAAT1; for inhibition of glutamate uptake (in words), EAAT1: COS cell culture
T1 construct: expressed in transfected cells; host or cells: COS-7 cells, pCMV5 construct, DEAE-dextran transient transfection
T1 sequence (P43003 whole entry): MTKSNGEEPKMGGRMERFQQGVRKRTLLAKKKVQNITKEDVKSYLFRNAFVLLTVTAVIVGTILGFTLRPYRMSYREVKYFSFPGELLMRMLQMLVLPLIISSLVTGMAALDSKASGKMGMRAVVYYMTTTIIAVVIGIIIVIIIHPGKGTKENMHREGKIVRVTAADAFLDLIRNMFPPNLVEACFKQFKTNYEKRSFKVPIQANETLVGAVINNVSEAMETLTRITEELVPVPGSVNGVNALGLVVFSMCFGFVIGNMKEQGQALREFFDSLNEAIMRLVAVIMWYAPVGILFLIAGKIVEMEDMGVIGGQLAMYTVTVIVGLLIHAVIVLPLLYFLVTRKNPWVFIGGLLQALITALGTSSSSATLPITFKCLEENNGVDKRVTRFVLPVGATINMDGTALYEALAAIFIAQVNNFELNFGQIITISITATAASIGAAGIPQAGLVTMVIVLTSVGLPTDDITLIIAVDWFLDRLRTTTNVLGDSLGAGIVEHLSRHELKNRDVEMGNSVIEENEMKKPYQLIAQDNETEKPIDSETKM
From the text: (§1) DNA fragments comprising the coding sequences of the novel glutamate transporter genes of the invention were excised from the POTV constructs described in Example 3 and subcloned into the mammalian expression plasmid pCMV5 (Anderson et al., 1989, J. Biol. Chem. 264: 8222-8229). These mammalian expression constructs were used for transient expression assays of glutamate transporter protein function after transfection of each of these constructs into COS-7 cells (Gluzman, 1981, Cell 23: 175-182).
(§2) Each of the pCMV5 constructs corresponding to EAAT1, EAAT2 and EAAT3 were introduced into COS-7 cells by DEAE-dextran facilitated transfection (see Sambrook et al., ibid.). Two day following transfection, the transfected cells were washed three times in phosphate-buffered saline (PBS) and then incubated with a mixture of radiolabeled amino acid ([^3H]-L-glutamate or [^3H]-D-aspartate; Dupont-NEN) and non-radiolabeled amino acid for 10 min. After incubation, the cells were washed three times with ice-cold PBS, solubilized with a solution of 0.1% sodium dodecyl sulfate (SDS) and the amount of radioactivity associated with the cells determined using standard liquid scintillation counting methods.
(§3) COS-7 cell cultures transformed with pCMVS-human glutamate transporter constructs as described in Example 4 were used to characterize the pharmacological properties of each of these transporter proteins relative to a variety of known glutamate transporter inhibitors. These assays were performed essentially as described in Example 4, with the exception that varying amounts of each of a number of known inhibitor compounds were included in the incubations.
(§4) In these experiments, uptake of 1 μM of […] was determined in the presence of the indicated amounts of each of the inhibitors.

human EAAT2 = biological target: T2, human EAAT2 (Homo sapiens, UniProt P43004); assay: inhibition of [3H]-L-glutamate uptake in COS-7 cells expressing EAAT2; settings: for Ki: read-out: Ki, glutamate uptake inhibition constant, EAAT2; for inhibition of glutamate uptake (in words), EAAT2: COS cell culture
T2 construct: expressed in transfected cells; host or cells: COS-7 cells, pCMV5 construct, DEAE-dextran transient transfection
T2 sequence (P43004 whole entry): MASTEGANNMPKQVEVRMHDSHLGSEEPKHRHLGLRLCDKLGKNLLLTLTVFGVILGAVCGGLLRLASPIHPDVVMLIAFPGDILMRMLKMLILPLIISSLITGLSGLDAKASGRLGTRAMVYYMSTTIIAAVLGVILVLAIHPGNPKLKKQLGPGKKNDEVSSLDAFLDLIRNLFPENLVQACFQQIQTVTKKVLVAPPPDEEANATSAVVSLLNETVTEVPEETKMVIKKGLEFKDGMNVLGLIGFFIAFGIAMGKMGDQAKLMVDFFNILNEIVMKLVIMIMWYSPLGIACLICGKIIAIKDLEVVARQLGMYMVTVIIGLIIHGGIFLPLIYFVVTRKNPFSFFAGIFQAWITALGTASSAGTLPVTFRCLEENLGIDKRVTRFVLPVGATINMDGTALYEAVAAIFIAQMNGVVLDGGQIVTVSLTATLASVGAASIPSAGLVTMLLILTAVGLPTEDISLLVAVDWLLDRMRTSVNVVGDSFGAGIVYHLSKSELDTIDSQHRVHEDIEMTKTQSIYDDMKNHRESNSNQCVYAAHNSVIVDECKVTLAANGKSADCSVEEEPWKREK
From the text: as §1, §2, §3, §4

human EAAT3 = biological target: T3, human EAAT3 (Homo sapiens, UniProt P43005); assay: inhibition of [3H]-L-glutamate uptake in COS-7 cells expressing EAAT3; settings: for Ki: read-out: Ki, glutamate uptake inhibition constant, EAAT3; for inhibition of glutamate uptake (in words), EAAT3: COS cell culture
T3 construct: isolation of Clone GT11B containing a full-length open reading frame encoding EAAT3; expressed in transfected cells; host or cells: COS-7 cells, pCMV5 construct, DEAE-dextran transient transfection
T3 sequence (P43005 1-524): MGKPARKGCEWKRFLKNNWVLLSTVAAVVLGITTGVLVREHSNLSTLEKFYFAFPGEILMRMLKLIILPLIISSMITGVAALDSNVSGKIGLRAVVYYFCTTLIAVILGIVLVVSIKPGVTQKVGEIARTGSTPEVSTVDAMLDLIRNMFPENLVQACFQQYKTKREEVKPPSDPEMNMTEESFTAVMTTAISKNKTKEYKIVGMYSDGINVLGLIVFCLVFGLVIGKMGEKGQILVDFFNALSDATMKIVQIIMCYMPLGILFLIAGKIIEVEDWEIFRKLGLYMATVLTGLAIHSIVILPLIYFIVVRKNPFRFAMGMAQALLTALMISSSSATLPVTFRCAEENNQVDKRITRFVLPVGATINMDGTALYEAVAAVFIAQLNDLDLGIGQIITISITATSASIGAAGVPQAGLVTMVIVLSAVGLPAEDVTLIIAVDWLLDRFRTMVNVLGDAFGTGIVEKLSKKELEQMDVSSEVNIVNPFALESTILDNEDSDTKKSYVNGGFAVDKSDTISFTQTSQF
From the text: as §1, §2, §3, §4

[1] = biological target: T4, human ASCT1 neutral amino acid transporter (Homo sapiens, UniProt P43007); assay: amino acid-induced inward current in voltage-clamped ASCT1-injected Xenopus oocytes
T4 construct: expressed in transfected cells; host or cells: Xenopus laevis oocytes injected with in vitro transcribed RNA (pOTV vector)
T4 sequence (P43007 1-532): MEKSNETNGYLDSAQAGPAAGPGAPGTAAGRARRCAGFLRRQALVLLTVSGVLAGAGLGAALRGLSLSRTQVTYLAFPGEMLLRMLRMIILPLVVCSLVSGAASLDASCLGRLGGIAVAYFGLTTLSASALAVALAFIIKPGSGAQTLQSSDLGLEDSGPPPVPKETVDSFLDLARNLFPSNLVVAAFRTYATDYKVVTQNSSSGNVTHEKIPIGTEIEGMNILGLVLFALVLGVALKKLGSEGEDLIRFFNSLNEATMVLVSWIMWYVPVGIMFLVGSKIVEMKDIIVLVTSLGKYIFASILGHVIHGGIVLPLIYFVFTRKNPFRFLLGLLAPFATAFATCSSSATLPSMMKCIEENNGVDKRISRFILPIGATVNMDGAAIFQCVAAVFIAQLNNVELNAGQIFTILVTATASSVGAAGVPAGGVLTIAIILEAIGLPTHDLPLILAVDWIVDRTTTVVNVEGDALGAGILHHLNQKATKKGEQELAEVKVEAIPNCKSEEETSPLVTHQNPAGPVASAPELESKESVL
From the text: (§5) Following the PCR, the product of the amplification reaction was purified using standard techniques (Saiki et al., 1988, Science 239: 487-491). The DNA then digested with the restriction enzymes KpnI and XbaI and then cloned into the polylinker of an oocyte transcription vector (POTV; see Wang el al., 1991, Nature 352: 729-731) that had been digested with KpnI and XbaI. Synthetic RNA was then transcribed in vitro from this clone using the method of Kavanaugh et al. (1992, J. Biol. Chem. 267: 22007-22009) employing bacteriophage T7 RNA polymerase (New England Biolabs, Beverly, Mass.). 20-50 nL of ASCT1 RNA (at a concentration of about 400 μg/mL) was injected into defolliculated stage V-VI Xenopus oocytes excised from female Xenopus laevis anesthetized by immersion in 3-aminobenzoic acid for 60 min. Excised oocytes were treated with collagenase II (Sigma Chemical Co., St. Louis, Mo.) in calcium-free Barth's saline solution [comprising 88 mM NaCl, 1 mM KCl, 2.4 mM NaHCO3, 0.82 mM MgSO4, 7.5 mM Tris-HCl (pH 7.6), 50 U/mL Nystatin (Sigma) and 0.1 mg/mL gentamycin (Sigma)] for 60 min., and then incubated overnight at 15° C. in 50% Leibowitz's L-15 media (Grand Island Biological Co. (GIBCO), Long Island, N.Y.). After overnight incubation the oocytes were mechanically defolliculated and then were injected with ASCT-1 RNA and incubated at 19° C. for 48 h (see Kim el al., 1991, Nature 352: 725-728 for further details of Xenopus oocyte preparation and microinjection).
(§6) Amino acid transport in such oocytes was assayed using [^3H] alanine, [^3H] serine or [^35S] cysteine (obtained from New England Nuclear, Boston, Mass.). Briefly, microinjected oocytes were […] at −60 mV using a Dagan TEV-200 clamp amplifier with an Axon Instruments (Foster City, Calif.) TL-1 A/D interface controlled by pCLAMP software (Axon Instruments) (see Kavanaugh et al., 1992, J. Biol. Chem. 267: 22007-22009 for a detailed review of this methodology) and continuously superfused with ND-96 buffer (consisting of 96 mM NaCl/2 mM KCl/1.8 mM CaCl2/1 mM MgCl2/5 mM HEPES, pH 7.5). For transport measurements, this solution was changed to a solution containing varying concentrations of the radiolabeled amino acids in ND-96 buffer.
More detailed analyses of ithe kinetics of amino acid influx were performed by least squares linear regression analysis of induced inward current ([I]) plotted as a function of substrate amino acid concentration ([S]), using the equation shown in the legend of Table II.

[2] = biological target: T4, human ASCT1 neutral amino acid transporter; assay: radiolabeled amino acid uptake in ASCT1 RNA-injected Xenopus oocytes; settings: competitor 10 mM; [3H] alanine 100 μM
From the text: as §5, §6

[3] = uptake of 1 μM [3H]-L-glutamate, bound given in mM
[4] = uptake of 1 μM [3H]-L-glutamate, [S] << Km, Ki does not differ significantly from measured IC50
[5] = much higher concentrations (about 1 mM)

Compound: C=C(C)[C@H]1CN[C@H](C(=O)O)[C@H]1CC(=O)O [KAI, kainate]
Ki (human EAAT1; [3]): > 1 mM
Ki (human EAAT2; [4]): 59 ± 18 µM
Ki (human EAAT3; [3]): > 1 mM

Compound: O=C(O)[C@H]1CN[C@H](C(=O)O)C1 [PDC, L-trans-pyrrolidine-2,4-dicarboxylate]
Ki (human EAAT1): 0.079 ± 0.007 mM
Ki (human EAAT2): 8 ± 2 µM
Ki (human EAAT3): 0.061 ± 0.014 mM

Compound: CC(=O)N[C@@H](CC(=O)O)C(=O)N[C@@H](CCC(=O)O)C(=O)O [N-acetyl aspartylglutamate] (Ac-Asp-Glu-OH)
inhibition of glutamate uptake (in words), EAAT1 (human EAAT1): ineffective
inhibition of glutamate uptake (in words), EAAT2 (human EAAT2): ineffective
inhibition of glutamate uptake (in words), EAAT3 (human EAAT3): ineffective

Compound: NC(CCCC(=O)O)C(=O)O (stereo not drawn) [α-aminoadipate]
inhibition of glutamate uptake (in words), EAAT1 (human EAAT1): only low potency
inhibition of glutamate uptake (in words), EAAT2 (human EAAT2): only low potency
inhibition of glutamate uptake (in words), EAAT3 (human EAAT3): only low potency

Compound: N[C@@H](CS(=O)(=O)O)C(=O)O [L-cysteate]
Ki (human EAAT1; [4]): 0.01 ± 0.003 mM
Ki (human EAAT2; [4]): 10 ± 2 µM
Ki (human EAAT3; [4]): 0.019 ± 0.009 mM

Compound: NC1(C(=O)O)CC(C(=O)O)C1 (stereo not drawn) [cis-1-aminocyclobutane-1,3-dicarboxylate]
inhibition of glutamate uptake (in words), EAAT1 (human EAAT1): ineffective
inhibition of glutamate uptake (in words), EAAT2 (human EAAT2): ineffective
inhibition of glutamate uptake (in words), EAAT3 (human EAAT3): ineffective

Now from value to molecule:

effect on membrane current of ASCT1-injected oocytes [1, 5]: had no effect
Compound: NC(=O)CC[C@H](N)C(=O)O [L-glutamine]

Ki (human EAAT1): 0.014 ± 0.007 mM
Ki (human EAAT2): 6 ± 1 µM
Ki (human EAAT3): 0.017 ± 0.002 mM
Compound: N[C@@H](CS(=O)O)C(=O)O [L-cysteine sulfinic acid]

Ki (human EAAT1): 0.032 ± 0.008 mM
Ki (human EAAT2): 19 ± 6 µM
Ki (human EAAT3): 0.025 ± 0.005 mM
Compound: N[C@H](C(=O)O)[C@H](O)C(=O)O [THA, L-threo-β-hydroxyaspartate]

effect on membrane current of ASCT1-injected oocytes [1, 5]: had no effect
Compound: CSCC[C@H](N)C(=O)O [methionine]

effect on membrane current of ASCT1-injected oocytes [1, 5]: had no effect
Compound: CN[C@@H](C)C(=O)O [N-methylalanine]

effect on membrane current of ASCT1-injected oocytes [1, 5]: had no effect
Compound: O=C(O)[C@@H]1CCCN1 [proline]

effect on the rate of uptake of [3H] alanine (competition) [2]: had no effect
effect on membrane current of ASCT1-injected oocytes ([1]; 1 mM): had no effect
Compound: CNC(C)(C)C(=O)O [MAIB, 2-methylaminoisobutyric acid]

effect on membrane current of ASCT1-injected oocytes [1, 5]: had no effect
Compound: CC(C)C[C@H](N)C(=O)O [leucine]

From patent US6537803B1, “Amino acid transporters and uses” (Oregon Health Sciences University, priority 1993, dated 2003)
